Test [1] deals with morningglory. Nature of the test: Test A preemergence. Format: in vivo, Ipomoea spp. To be noted: Preemergence, 1000 g ai/ha; 0 to 100 scale, 0 no effect, 100 complete control. An excerpt: (§1) Seeds of plant species selected from barnyardgrass (Echinochloa crus-galli), kochia (Kochia scoparia), common ragweed (Ambrosia elation), Italian ryegrass (Lolium multiflorum), crabgrass, large (large crabgrass, Digitaria sanguinalis), foxtail, giant (giant foxtail, Setaria faberii), morningglory (Ipomoea spp.), pigweed (redroot pigweed, Amaranthus retroflexus), velvetleaf (Abutilon theophrasti), wheat (Triticum aestivum), and corn (Zea mays) were planted into a blend of loam soil and sand and treated preemergence with a directed soil spray using test chemicals formulated in a non-phytotoxic solvent mixture which included a surfactant.
(§2) At the same time, plants selected from these crop and weed species and also blackgrass (Alopecurus myosuroides), and galium (catchweed bedstraw, Galium aparine) were planted in pots containing the same blend of loam soil and sand and treated with postemergence applications of test chemicals formulated in the same manner. Plants ranged in height from 2 to 10 cm and were in the one- to two-leaf stage for the postemergence treatment. Treated plants and untreated controls were maintained in a greenhouse for approximately 10 days, after which time all treated plants were compared to untreated controls and visually evaluated for injury. Plant response ratings, summarized in Table A, are based on a 0 to 100 scale where 0 is no effect and 100 is complete control. A dash (-) response means no test result.

In test [2] the test system is barnyardgrass. The test can be described thus: Test A preemergence. The test is classed as in vivo, Echinochloa crus-galli. To be noted: Preemergence, 1000 g ai/ha; 0 to 100 scale, 0 no effect, 100 complete control. In short, it runs like this: (§3)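 Visual injury ratings, 0 = no effect to 100 = complete control, taken about 10 days after treatment against untreated controls. Test chemicals, in a non-phytotoxic surfactant-containing solvent, were sprayed onto soil preemergence or onto one- to two-leaf plants (2–10 cm) postemergence, in loam–sand soil under greenhouse conditions.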

Test [3] has as its system foxtail, giant. The test can be described thus: Test A postemergence. Format: in vivo, Setaria faberii. To be noted: Postemergence, 1000 g ai/ha; visual rating after approx. 10 days, 0 to 100 scale (0 no effect, 100 complete control). A digest of the protocol: as §3
In test [4] the test system is pigweed. Nature of the test: Test A postemergence. The test is classed as in vivo, Amaranthus retroflexus. To be noted: Postemergence, 1000 g ai/ha; visual rating after approx. 10 days, 0 to 100 scale (0 no effect, 100 complete control).
Text: as §1, §2

Test [5] concerns wheat. The test can be described thus: Test A postemergence. Format: in vivo, Triticum aestivum. To be noted: Postemergence, 1000 g ai/ha; visual rating after approx. 10 days, 0 to 100 scale (0 no effect, 100 complete control). In short, it runs like this:
as §3

Test [6] deals with wheat. The test can be described thus: Test A preemergence. Format: in vivo, Triticum aestivum. To be noted: Preemergence, 1000 g ai/ha; 0 to 100 scale, 0 no effect, 100 complete control. In short, it runs like this: as §3
The subject of test [7] is crabgrass, large. Nature of the test: Test A postemergence. Format: in vivo, Digitaria sanguinalis. To be noted: Postemergence, 1000 g ai/ha; visual rating after approx. 10 days, 0 to 100 scale (0 no effect, 100 complete control). A digest of the protocol: as §3
The test system of test [8] is barnyardgrass. Nature of the test: Test A postemergence. The test is classed as in vivo, Echinochloa crus-galli. To be noted: Postemergence, 1000 g ai/ha; visual rating after approx. 10 days, 0 to 100 scale (0 no effect, 100 complete control). In short, it runs like this:
as §3

The subject of test [9] is morningglory. Nature of the test: Test A postemergence. Format: in vivo, Ipomoea spp. To be noted: Postemergence, 1000 g ai/ha; visual rating after approx. 10 days, 0 to 100 scale (0 no effect, 100 complete control).
Text: as §1, §2

Test [10] deals with foxtail, giant. Nature of the test: Test A preemergence. To be noted: Preemergence, 1000 g ai/ha; 0 to 100 scale, 0 no effect, 100 complete control. Format: in vivo, Setaria faberii. A digest of the protocol: as §3
For test [11], the system named is velvetleaf. Nature of the test: Test A postemergence. The test is classed as in vivo, Abutilon theophrasti. To be noted: Postemergence, 1000 g ai/ha; visual rating after approx. 10 days, 0 to 100 scale (0 no effect, 100 complete control). A digest of the protocol:
as §3

Test [12] has as its system corn. Nature of the test: Test A postemergence. Format: in vivo, Zea mays. To be noted: Postemergence, 1000 g ai/ha; visual rating after approx. 10 days, 0 to 100 scale (0 no effect, 100 complete control). A digest of the protocol:
as §3

The test system of test [13] is velvetleaf. The test can be described thus: Test A preemergence. To be noted: Preemergence, 1000 g ai/ha; 0 to 100 scale, 0 no effect, 100 complete control. Format: in vivo, Abutilon theophrasti. A digest of the protocol: as §3
For test [14], the system named is crabgrass, large. The test can be described thus: Test A preemergence. The test is classed as in vivo, Digitaria sanguinalis. To be noted: Preemergence, 1000 g ai/ha; 0 to 100 scale, 0 no effect, 100 complete control.
Text: as §1, §2

Test [15] concerns corn. Nature of the test: Test A preemergence. The test is classed as in vivo, Zea mays. To be noted: Preemergence, 1000 g ai/ha; 0 to 100 scale, 0 no effect, 100 complete control. A digest of the protocol:
as §3

Test [16] concerns pigweed. Nature of the test: Test A preemergence. The test is classed as in vivo, Amaranthus retroflexus. To be noted: Preemergence, 1000 g ai/ha; 0 to 100 scale, 0 no effect, 100 complete control. A digest of the protocol: as §3

`CCNC(=O)c1cc(CC)n(Cc2cccc(OC(F)(F)F)c2)n1` [Compound 19]: the “Morningglory plant response rating” value in the test with morningglory [1] and in the test with morningglory [9] was 90 throughout. Further, the “Barnyardgrass plant response rating” value is recorded as 90 with barnyardgrass [2] and 60 in the test with barnyardgrass [8]. Also, the “Foxtail, Giant plant response rating” value is reported as 70 in the test with foxtail, giant [3] and 100 in the test with foxtail, giant [10]. Moreover, the “Pigweed plant response rating” value with pigweed [4] and in the test on pigweed [16] was 100 each time. The “Wheat plant response rating” value in the test on wheat [5] is listed as 20; in the test with wheat [6], 10. The “Crabgrass, Large plant response rating” value is listed as 80 in the test with crabgrass, large [7] and 100 in the test on crabgrass, large [14]. Also, the “Velvetleaf plant response rating” value is 100 in the test with velvetleaf [11] and 80 in the test with velvetleaf [13]. Also, the “Corn plant response rating” value in the test on corn [12] came out at 20; in the test with corn [15] it was 30.
For the compound `CSc1cc(C(=O)NC2CC2)nn1Cc1cccc(C(F)(F)F)c1` [Compound 22], the results for the “Morningglory plant response rating” value in the test on morningglory [1] and with morningglory [9] were 0 and 100, respectively. Besides, the “Barnyardgrass plant response rating” value with barnyardgrass [2] is reported as 0; with barnyardgrass [8], 30. Further, the “Foxtail, Giant plant response rating” value in the test with foxtail, giant [3] stood at 40; in the test with foxtail, giant [10], 20. Moreover, the “Pigweed plant response rating” value in the test with pigweed [4] is 60; in the test on pigweed [16], 0. Further, the “Wheat plant response rating” value in the test with wheat [5] came out at 20; in the test on wheat [6] it was 0. For the same compound, the “Crabgrass, Large plant response rating” value in the test with crabgrass, large [7] amounted to 50; with crabgrass, large [14], 10. Further, the entries for the “Velvetleaf plant response rating” value with velvetleaf [11] and in the test with velvetleaf [13] were 80 and 0, respectively. Moreover, the “Corn plant response rating” value in the test with corn [12] was 10; in the test on corn [15], 0.
Regarding `CCNC(=O)c1cc(SC)n(Cc2cccc(C(F)(F)F)c2)n1` [Compound 23], the “Morningglory plant response rating” value is given as 0 with morningglory [1] and 100 in the test with morningglory [9]. Further, the “Barnyardgrass plant response rating” value is listed as 0 with barnyardgrass [2] and 10 in the test on barnyardgrass [8]. Further, the “Foxtail, Giant plant response rating” value is 30 in the test with foxtail, giant [3] and 0 in the test on foxtail, giant [10]. In addition, the “Pigweed plant response rating” value with pigweed [4] turned out to be 40; in the test with pigweed [16] it was 0. The “Wheat plant response rating” value with wheat [5] and with wheat [6] was 0 in each case. Besides, the “Crabgrass, Large plant response rating” value in the test with crabgrass, large [7] came out at 30; with crabgrass, large [14], 0. In addition, the results for the “Velvetleaf plant response rating” value in the test on velvetleaf [11] and with velvetleaf [13] were 30 and 0, respectively. The “Corn plant response rating” value in the test with corn [12] amounted to 20; in the test on corn [15], 0.
On to `C=CCNC(=O)c1cc(CC)n(Cc2cccc(C(F)(F)F)c2)n1` [Compound 44], for which the “Morningglory plant response rating” value in the test on morningglory [1] came out at 20; in the test on morningglory [9], 70. The “Barnyardgrass plant response rating” value in the test with barnyardgrass [2] and in the test on barnyardgrass [8] was 10 in each case. Besides, the “Foxtail, Giant plant response rating” value in the test with foxtail, giant [3] was found to be 50; in the test on foxtail, giant [10] it was 50. Further, the “Pigweed plant response rating” value in the test on pigweed [4] came to 50; with pigweed [16], 10. In addition, the “Wheat plant response rating” value was found to be 20 in the test on wheat [5] and 0 with wheat [6]. For the same compound, the “Crabgrass, Large plant response rating” value was found to be 20 in the test on crabgrass, large [7] and 50 with crabgrass, large [14]. The “Velvetleaf plant response rating” value with velvetleaf [11] is given as 40; in the test on velvetleaf [13] it was 0. The “Corn plant response rating” value in the test on corn [12] and with corn [15] was 20 each time.

Source of the values: patent US20150105252A1, “SUBSTITUTED PYRAZOLES AS HERBICIDES” (E I DU PONT DE NEMOURS AND COMPANY, priority 2013, published 2015).
